Here are results for six compounds from publication PMC9247001, “Ligand-induced structural transitions combined with paramagnetic ions facilitate unambiguous NMR assignments of methyl groups in large proteins” (Journal of Biomolecular Nmr, 2022).

The target of experiment [1] is UTP:LmUGP complex. Nature of the experiment: Four-states binding model, metal binding to UTP in complex with LmUGP (KD4). Also noted: species or system Leishmania major. Conditions: approximated by nonlinear least-squares minimization of the four-states model from KD1-3.
Details of experiment [2]: method as in Zea et al. [2008]. Conditions: isothermal titration calorimetry; ref Zea et al. [2008]; read-out: KD1, dissociation constant for the interaction of UTP with divalent metals (converted); cited from earlier work.
Experiment [3] can be described thus: 1H NMR titration of di- and trivalent metals over UTP (KD1). Type of experiment: binding. Conditions: metal 0-1400 µM, UTP 239.2 or 250 µM, 293 K, 600 MHz, read-out: KD1, dissociation constant for the interaction of UTP with di- and trivalent metals.

The structures appear in SMILES notation. Like-named read-outs stand apart in the source and are kept apart here.

`[Cl-].[Cl-].[Mg+2]` [MgCl2]: the Kd was 115 ± 10 µM in experiment [1], 70 µM in experiment [2] and 82 ± 6 µM in experiment [3].
Turning to `[Cl][Lu]([Cl])[Cl]` [LuCl3], the values for the Kd in experiment [1] and in experiment [3] were 46 ± 21 µM and 38 ± 17 µM, respectively.
Turning to `[Cl][Mn][Cl]` [MnCl2], the Kd in experiment [2] was 77 ± 12 µM.
With `[Cl][La]([Cl])[Cl]` [LaCl3], the Kd in experiment [1] was 15 ± 7 µM; in experiment [3], 11 ± 5 µM.
On the same counts, the results for `[Cl][Ce]([Cl])[Cl]` [CeCl3] are 17 ± 5 µM and 13 ± 4 µM.
Take `[Cl][Eu]([Cl])[Cl]` [EuCl3]: the Kd in experiment [1] was 38 ± 12 µM; in experiment [3], 28 ± 9 µM.
